In US12077503B2, “Substituted cyclic amides and their use as herbicides” (FMC CORPORATION, priority 2015, dated 2024):

Legend:
Assay type in all cases: in vivo
corn (Zea mays) [1] = experiment: Test G Post-Emergence Protocol; details: Zea mays, post-emergence, 312 h, read-out: Corn damage rating; for plant injury at 15.625 g/ha: 15.625 g ai/ha, evaluated after 13 days (100=total damage to plant; 0=no damage to plant); for plant injury at 62.5 g/ha: 62.5 g ai/ha; for plant injury at 62.5 g/ha / plant injury at 250 g/ha: evaluated after 13 days, 100=total damage to plant, 0=no damage to plant; for plant injury at 250 g/ha: 250 g ai/ha
Outline: (§1)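 Seedlings grown 8 days in soil in a glasshouse (24/16 °C day/night, 14 h light, 65% humidity) were sprayed post-emergence with compound in acetone/water 50:50 plus 0.5% Tween 20 at 15.625, 62.5 or 250 g/ha. Damage was scored after 13 days on a 0–100 scale (100 = total damage).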

[2] = tested on: ivy-leaved morning glory (Ipomoea hederacea); experiment: Test G Post-Emergence Protocol; details: Ipomoea, post-emergence, 312 h, read-out: Morningglory, Ivy-leaved damage rating; for pest or weed control at 15.625 g/ha: 15.625 g ai/ha, evaluated after 13 days (100=total damage to plant; 0=no damage to plant); for pest or weed control at 62.5 g/ha: 62.5 g ai/ha; for pest or weed control at 62.5 g/ha / pest or weed control at 250 g/ha: evaluated after 13 days, 100=total damage to plant, 0=no damage to plant; for pest or weed control at 250 g/ha: 250 g ai/ha
Outline: as §1

[3] = tested on: barnyardgrass (Echinochloa crus-galli); experiment: Test G Post-Emergence Protocol; details: Echinochloa crus-galli, post-emergence, 312 h, read-out: Barnyardgrass damage rating; for pest or weed control at 15.625 g/ha: 15.625 g ai/ha, evaluated after 13 days (100=total damage to plant; 0=no damage to plant); for pest or weed control at 62.5 g/ha: 62.5 g ai/ha; for pest or weed control at 62.5 g/ha / pest or weed control at 250 g/ha: evaluated after 13 days, 100=total damage to plant, 0=no damage to plant; for pest or weed control at 250 g/ha: 250 g ai/ha
Outline: as §1

[4] = tested on: redroot pigweed (Amaranthus retroflexus); experiment: Test G Post-Emergence Protocol; details: Amaranthus retroflexus, post-emergence, 312 h, read-out: Pigweed, Redroot damage rating; for pest or weed control at 15.625 g/ha: 15.625 g ai/ha, evaluated after 13 days (100=total damage to plant; 0=no damage to plant); for pest or weed control at 62.5 g/ha: 62.5 g ai/ha; for pest or weed control at 62.5 g/ha / pest or weed control at 250 g/ha: evaluated after 13 days, 100=total damage to plant, 0=no damage to plant; for pest or weed control at 250 g/ha: 250 g ai/ha
Outline: as §1

[5] = tested on: giant foxtail (Setaria faberi); experiment: Test G Post-Emergence Protocol; details: Setaria faberi, post-emergence, 312 h, read-out: Foxtail, Giant damage rating; for pest or weed control at 15.625 g/ha: 15.625 g ai/ha, evaluated after 13 days (100=total damage to plant; 0=no damage to plant); for pest or weed control at 62.5 g/ha: 62.5 g ai/ha
Outline: as §1

[6] = tested on: velvetleaf (Abutilon theophrasti); experiment: Test G Post-Emergence Protocol; details: Abutilon theophrasti, post-emergence, 312 h, read-out: Velvetleaf damage rating; for pest or weed control at 15.625 g/ha: 15.625 g ai/ha, evaluated after 13 days (100=total damage to plant; 0=no damage to plant); for pest or weed control at 62.5 g/ha: 62.5 g ai/ha; for pest or weed control at 62.5 g/ha / pest or weed control at 250 g/ha: evaluated after 13 days, 100=total damage to plant, 0=no damage to plant; for pest or weed control at 250 g/ha: 250 g ai/ha
Outline: as §1

corn (Zea mays) [7] = experiment: Test G Pre-Emergence Protocol; details: Zea mays, pre-emergence, 312 h, evaluated after 13 days; for plant injury at 15.625 g/ha: 15.625 g ai/ha; for plant injury at 15.625 g/ha / plant injury at 250 g/ha: read-out: Corn damage rating (100=total damage to plant; 0=no damage to plant); for plant injury at 62.5 g/ha: 62.5 g ai/ha, 100=total damage to plant, 0=no damage to plant, read-out: Corn damage rating; for plant injury at 250 g/ha: 250 g ai/ha
Outline: (§2)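 Spraying took place one day after sowing, at 15.625, 62.5 or 250 g/ha, using an acetone/water (50:50) spray solution containing 0.5% Tween 20. Plants were kept under glasshouse conditions (24/16 °C, 14 h light, 65% humidity, watered twice daily), and injury was rated 0–100 at day 13.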

[8] = tested on: ivy-leaved morning glory (Ipomoea hederacea); experiment: Test G Pre-Emergence Protocol; details: Ipomoea, pre-emergence, 312 h, evaluated after 13 days; for pest or weed control at 15.625 g/ha: 15.625 g ai/ha; for pest or weed control at 15.625 g/ha / pest or weed control at 250 g/ha: read-out: Morningglory, Ivy-leaved damage rating (100=total damage to plant; 0=no damage to plant); for pest or weed control at 62.5 g/ha: 62.5 g ai/ha, 100=total damage to plant, 0=no damage to plant, read-out: Morningglory, Ivy-leaved damage rating; for pest or weed control at 250 g/ha: 250 g ai/ha
Outline: as §2

[9] = tested on: barnyardgrass (Echinochloa crus-galli); experiment: Test G Pre-Emergence Protocol; details: Echinochloa crus-galli, pre-emergence, 312 h, evaluated after 13 days; for pest or weed control at 15.625 g/ha: 15.625 g ai/ha; for pest or weed control at 15.625 g/ha / pest or weed control at 250 g/ha: read-out: Barnyardgrass damage rating (100=total damage to plant; 0=no damage to plant); for pest or weed control at 62.5 g/ha: 62.5 g ai/ha, 100=total damage to plant, 0=no damage to plant, read-out: Barnyardgrass damage rating; for pest or weed control at 250 g/ha: 250 g ai/ha
Outline: as §2

[10] = tested on: redroot pigweed (Amaranthus retroflexus); experiment: Test G Pre-Emergence Protocol; details: Amaranthus retroflexus, pre-emergence, 312 h, evaluated after 13 days; for pest or weed control at 15.625 g/ha: 15.625 g ai/ha; for pest or weed control at 15.625 g/ha / pest or weed control at 250 g/ha: read-out: Pigweed, Redroot damage rating (100=total damage to plant; 0=no damage to plant); for pest or weed control at 62.5 g/ha: 62.5 g ai/ha, 100=total damage to plant, 0=no damage to plant, read-out: Pigweed, Redroot damage rating; for pest or weed control at 250 g/ha: 250 g ai/ha
Outline: as §2

[11] = tested on: giant foxtail (Setaria faberi); experiment: Test G Pre-Emergence Protocol; details: Setaria faberi, pre-emergence, 312 h, evaluated after 13 days; for pest or weed control at 15.625 g/ha: 15.625 g ai/ha; for pest or weed control at 15.625 g/ha / pest or weed control at 250 g/ha: read-out: Foxtail, Giant damage rating (100=total damage to plant; 0=no damage to plant); for pest or weed control at 62.5 g/ha: 62.5 g ai/ha, 100=total damage to plant, 0=no damage to plant, read-out: Foxtail, Giant damage rating; for pest or weed control at 250 g/ha: 250 g ai/ha
Outline: as §2

[12] = tested on: velvetleaf (Abutilon theophrasti); experiment: Test G Pre-Emergence Protocol; details: Abutilon theophrasti, pre-emergence, 312 h, evaluated after 13 days; for pest or weed control at 15.625 g/ha: 15.625 g ai/ha; for pest or weed control at 15.625 g/ha / pest or weed control at 250 g/ha: read-out: Velvetleaf damage rating (100=total damage to plant; 0=no damage to plant); for pest or weed control at 62.5 g/ha: 62.5 g ai/ha, 100=total damage to plant, 0=no damage to plant, read-out: Velvetleaf damage rating; for pest or weed control at 250 g/ha: 250 g ai/ha
Outline: as §2

[13] = evaluated after 13 days, 100=total damage to plant, 0=no damage to plant

With CN1CC(c2ccc(C(F)(F)F)c(C(F)(F)F)c2)C(C(=O)Nc2cccc(F)c2F)C1=O (centres unmarked) [Compound 1714] the plant injury at 15.625 g/ha (corn (Zea mays) [1]) was 20%, the plant injury at 62.5 g/ha (corn (Zea mays) [1]) was 30% and the plant injury at 250 g/ha (corn (Zea mays) [1]) was 50%. It also gave a pest or weed control at 15.625 g/ha [2] of 10%, a pest or weed control at 62.5 g/ha [2] of 20% and a pest or weed control at 250 g/ha [2] of 60%. For the same compound, the pest or weed control at 15.625 g/ha [3] was 40%, the pest or weed control at 62.5 g/ha [3] was 70% and the pest or weed control at 250 g/ha [3] was 80%. For the same compound, the pest or weed control at 15.625 g/ha [4] was 70%, the pest or weed control at 62.5 g/ha [4] was 80% and the pest or weed control at 250 g/ha [4] was 90%. For the same compound, the pest or weed control at 15.625 g/ha [5] was 70%, the pest or weed control at 62.5 g/ha [5, 13] was 80% and the pest or weed control at 250 g/ha ([5]; 250 g ai/ha, evaluated after 13 days, 100=total damage to plant, 0=no damage to plant) was 80%. For the same compound, the pest or weed control at 15.625 g/ha [6] was 0%, the pest or weed control at 62.5 g/ha [6] was 30% and the pest or weed control at 250 g/ha [6] was 40%. The plant injury at 15.625 g/ha (corn (Zea mays) [7]) was 0%, the plant injury at 62.5 g/ha (corn (Zea mays) [7]) was 0% and the plant injury at 250 g/ha (corn (Zea mays) [7]) was 10%. For the same compound, the pest or weed control at 15.625 g/ha [8] was 0%, the pest or weed control at 62.5 g/ha [8] was 0% and the pest or weed control at 250 g/ha [8] was 10%. The pest or weed control at 15.625 g/ha [9] was 0%, the pest or weed control at 62.5 g/ha [9] was 50% and the pest or weed control at 250 g/ha [9] was 80%. It also gave a pest or weed control at 15.625 g/ha [10] of 0%, a pest or weed control at 62.5 g/ha [10] of 0% and a pest or weed control at 250 g/ha [10] of 10%. It also gave a pest or weed control at 15.625 g/ha [11] of 30%, a pest or weed control at 62.5 g/ha [11] of 70% and a pest or weed control at 250 g/ha [11] of 80%. It also gave a pest or weed control at 15.625 g/ha [12] of 0%, a pest or weed control at 62.5 g/ha [12] of 0% and a pest or weed control at 250 g/ha [12] of 0%.
Compound CN1C[C@H](c2cc(F)cc(F)c2)[C@@H](C(=O)Nc2cnccc2C(F)(F)F)C1=O (racemic) [Compound 1741] has a plant injury at 15.625 g/ha (corn (Zea mays) [1]) of 0%, a plant injury at 62.5 g/ha (corn (Zea mays) [1]) of 0% and a plant injury at 250 g/ha (corn (Zea mays) [1]) of 0%. It also gave a pest or weed control at 15.625 g/ha [2] of 0%, a pest or weed control at 62.5 g/ha [2] of 30% and a pest or weed control at 250 g/ha [2] of 10%. It also gave a pest or weed control at 15.625 g/ha [3] of 0%, a pest or weed control at 62.5 g/ha [3] of 0% and a pest or weed control at 250 g/ha [3] of 70%. It also gave a pest or weed control at 15.625 g/ha [4] of 0%, a pest or weed control at 62.5 g/ha [4] of 0% and a pest or weed control at 250 g/ha [4] of 0%. For the same compound, the pest or weed control at 15.625 g/ha [5] was 50%, the pest or weed control at 62.5 g/ha [5, 13] was 80% and the pest or weed control at 15.625 g/ha [6] was 0%. For the same compound, the pest or weed control at 62.5 g/ha [6] was 0%, the pest or weed control at 250 g/ha [6] was 10% and the plant injury at 15.625 g/ha (corn (Zea mays) [7]) was 0%. It also gave a plant injury at 62.5 g/ha (corn (Zea mays) [7]) of 10%, a plant injury at 250 g/ha (corn (Zea mays) [7]) of 30% and a pest or weed control at 15.625 g/ha [8] of 0%. It also gave a pest or weed control at 62.5 g/ha [8] of 0%, a pest or weed control at 250 g/ha [8] of 0% and a pest or weed control at 15.625 g/ha [9] of 0%. For the same compound, the pest or weed control at 62.5 g/ha [9] was 40%, the pest or weed control at 250 g/ha [9] was 70% and the pest or weed control at 15.625 g/ha [10] was 10%. For the same compound, the pest or weed control at 62.5 g/ha [10] was 20%, the pest or weed control at 250 g/ha [10] was 30% and the pest or weed control at 15.625 g/ha [11] was 0%. For the same compound, the pest or weed control at 62.5 g/ha [11] was 90%, the pest or weed control at 250 g/ha [11] was 90% and the pest or weed control at 15.625 g/ha [12] was 0%. For the same compound, the pest or weed control at 62.5 g/ha [12] was 30% and the pest or weed control at 250 g/ha [12] was 60%.
